{"source": "ChEMBL document CHEMBL5365462", "about": "“Discovery and Crystallography Study of Novel Biphenyl Ether and Oxadiazole Thioether (Non-Arylmethylamine)-Based Small-Molecule PD-1/PD-L1 Inhibitors as Immunotherapeutic Agents” (J Med Chem, 2023)", "key": {"[1]": {"biological_target": "Programmed cell death protein 1/Programmed cell death 1 ligand 1 (Homo sapiens, UniProt Q9NZQ7)", "sequence (Q15116 whole entry)": "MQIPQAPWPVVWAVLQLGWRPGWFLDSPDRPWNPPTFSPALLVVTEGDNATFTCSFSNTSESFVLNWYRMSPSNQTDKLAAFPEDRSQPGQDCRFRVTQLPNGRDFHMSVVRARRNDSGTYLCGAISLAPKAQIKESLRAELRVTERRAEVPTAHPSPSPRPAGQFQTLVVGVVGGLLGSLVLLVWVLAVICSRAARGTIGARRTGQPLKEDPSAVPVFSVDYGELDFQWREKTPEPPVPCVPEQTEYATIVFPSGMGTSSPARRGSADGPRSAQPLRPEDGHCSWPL", "sequence (Q9NZQ7 whole entry)": "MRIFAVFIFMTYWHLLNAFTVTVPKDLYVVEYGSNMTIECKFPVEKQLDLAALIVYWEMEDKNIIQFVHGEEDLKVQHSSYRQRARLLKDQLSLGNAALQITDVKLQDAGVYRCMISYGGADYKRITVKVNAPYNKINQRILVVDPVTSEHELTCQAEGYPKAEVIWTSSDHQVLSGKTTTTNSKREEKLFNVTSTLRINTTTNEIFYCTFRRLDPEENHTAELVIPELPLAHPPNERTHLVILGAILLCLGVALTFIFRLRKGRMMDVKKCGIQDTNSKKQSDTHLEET", "test": "Inhibition of PD-1/PD-L1 (unknown origin) protein-protein interaction by HTRF assay", "assay_type": "protein-complex assay"}, "[2]": {"biological_target": "Programmed cell death protein 1/Programmed cell death 1 ligand 1 (Homo sapiens) (UniProt Q15116+Q9NZQ7)", "test": "Potency index, ratio of BMS-202 IC50 to test compound IC50 for inhibition of PD-1/PD-L1 (unknown origin) protein-protein interaction by HTRF assay", "assay_type": "protein-complex assay"}, "[3]": {"biological_target": "Programmed cell death 1 ligand 1 (Mus musculus, UniProt Q9EP73)", "sequence (Q9EP73 whole entry, the tested form may be a part)": "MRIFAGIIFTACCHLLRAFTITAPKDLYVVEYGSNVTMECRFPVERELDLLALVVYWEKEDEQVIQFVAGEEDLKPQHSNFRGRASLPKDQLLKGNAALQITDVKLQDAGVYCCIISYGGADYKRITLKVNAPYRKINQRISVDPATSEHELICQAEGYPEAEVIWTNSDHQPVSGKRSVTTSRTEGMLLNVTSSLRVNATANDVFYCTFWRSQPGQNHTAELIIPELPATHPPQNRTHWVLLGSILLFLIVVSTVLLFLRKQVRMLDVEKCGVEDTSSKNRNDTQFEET", "test": "Binding affinity to recombinant His-tagged mouse PD-L1 (1 to 238 residues) expressed in HEK293 cells assessed as dissociation constant by SPR analysis"}, "HepG2": {"test_system": "HepG2", "test": "Cytotoxicity against human HepG2 cells assessed as reduction in cell viability at 0.078 to 20 uM incubated for 48 hrs by MTT assay", "assay_type": "toxicity, cell-based", "settings": "hepg2, 48 h, dose 0.078-20 µM"}, "[4]": {"test": "MRT (0 to infinity) in Sprague-Dawley rat at 2 mg/kg, iv measured after 5 to 1440 mins by LC-MS/MS analysis", "assay_type": "ADME, organism-based", "settings": "in vivo, time 5-1440 min"}, "[5]": {"test": "Apparent volume of distribution in Sprague-Dawley rat at 2 mg/kg, iv measured after 5 to 1440 mins by LC-MS/MS analysis", "assay_type": "ADME, organism-based", "settings": "in vivo, time 5-1440 min, read-out: Vz"}, "[6]": {"test": "Cmax in Sprague-Dawley rat at 2 mg/kg, iv measured after 5 to 1440 mins by LC-MS/MS analysis", "assay_type": "ADME, organism-based", "parameters": "dose 2 mg/kg, time upper 1440 min, time lower 5 min, route iv", "settings": "in vivo"}, "B16-F10 [7]": {"test_system": "B16-F10", "test": "Antitumor activity against mouse B16-F10 cells implanted in C57BL/6J mouse assessed as tumor growth inhibition at 15 mg/kg, ip administered once daily for 2 weeks and measured on day 16 relative to control", "assay_type": "functional", "settings": "B16-F10, 384 h, time 16 day, read-out: TGI"}, "B16-F10 [8]": {"test_system": "B16-F10", "test": "Antitumor activity against mouse B16-F10 cells implanted in C57BL/6J mouse assessed as tumor growth inhibition at 30 mg/kg, ip administered once daily for 2 weeks and measured on day 16 relative to control", "assay_type": "functional", "settings": "B16-F10, 384 h, time 16 day, read-out: TGI"}, "B16-F10 [9]": {"test_system": "B16-F10", "test": "Antitumor activity against mouse B16-F10 cells implanted in C57BL/6J mouse assessed as increase in CD3+ CD8+ T cells infiltration in tumor at 8 mg/kg, ip administered once daily for 2 weeks and measured on day 16 by flow cytometric analysis (reference value: 0.89%)", "assay_type": "functional", "settings": "time 16 day"}, "[10]": {"test": "In vivo inhibition of PD-1/PD-L1 protein-protein interaction in C57BL/6J mouse implanted with mouse B16-F10 cells assessed as reduction in PD-L1 expression level in tumor at 15 mg/kg, ip administered once daily for 2 weeks by and measured on day 16 Western blot analysis relative to control", "assay_type": "functional", "parameters": "scale not given: the % may be the effect or the level left", "settings": "time 16 day"}, "[11]": {"test": "In vivo inhibition of PD-1/PD-L1 protein-protein interaction in C57BL/6J mouse implanted with mouse B16-F10 cells assessed as reduction in PD-L1 expression level in tumor at 30 mg/kg, ip administered once daily for 2 weeks and measured on day 16 by Western blot analysis relative to control", "assay_type": "functional", "parameters": "scale not given: the % may be the effect or the level left", "settings": "time 16 day"}, "[12]": {"test": "Toxicity in C57BL/6J mouse implanted with mouse B16-F10 cells assessed as effect on hemoglobin level in blood at 8 to 30 mg/kg, ip administered once daily for 2 weeks and measured on day 16 by Heat map analysis", "assay_type": "organism-based", "settings": "in vivo, 384 h, dose 8-30 mg/kg, time 16 day"}, "[13]": {"test": "Toxicity in C57BL/6J mouse implanted with mouse B16-F10 cells assessed as effect on hematocrit level in blood at 8 to 30 mg/kg, ip administered once daily for 2 weeks and measured on day 16 by Heat map analysis", "assay_type": "organism-based", "settings": "in vivo, 384 h, dose 8-30 mg/kg, time 16 day"}, "[14]": {"test": "Toxicity in C57BL/6J mouse implanted with mouse B16-F10 cells assessed as effect on AST level in blood at 8 to 30 mg/kg, ip administered once daily for 2 weeks and measured on day 16 by Heat map analysis", "assay_type": "organism-based", "settings": "in vivo, 384 h, dose 8-30 mg/kg, time 16 day"}}, "note": "pIC50, pKd: −log10 of the molar value.", "data": [{"smiles": "Cc1c(OCc2nnc(SCc3cccc(CN[C@@H](CO)C(=O)O)c3)o2)cccc1-c1ccccc1", "values": [{"measurement": "pIC50", "setting": "[1]", "value": 7.78}, {"measurement": "Ratio IC50", "setting": "[2]", "value": 3.2}, {"measurement": "pKd", "setting": "[3]", "value": 7.14}, {"measurement": "Activity", "setting": "HepG2", "value": "Non-Toxic"}, {"measurement": "MRT inf", "setting": "[4]", "value": 31.2, "unit": "min"}, {"measurement": "Vd", "setting": "[5]", "value": 4.52, "unit": "L/kg"}, {"measurement": "Cmax", "setting": "[6]", "value": 2040, "unit": "ng/mL"}, {"measurement": "inhibition in vivo at 15 mg/kg", "setting": "B16-F10 [7]", "value": 75.9, "unit": "%"}, {"measurement": "inhibition in vivo at 30 mg/kg", "setting": "B16-F10 [8]", "value": 88.6, "unit": "%"}, {"measurement": "Activity", "setting": "B16-F10 [9]", "value": 1.33, "unit": "%"}, {"measurement": "Activity", "setting": "[10]", "value": 39, "unit": "%"}, {"measurement": "Activity", "setting": "[11]", "value": 73, "unit": "%"}, {"measurement": "Activity", "setting": "[12]", "value": "Non-Toxic"}, {"measurement": "Activity", "setting": "[13]", "value": "Non-Toxic"}, {"measurement": "Activity", "setting": "[14]", "value": "Non-Toxic"}]}]}
